Data published in the NIST ThermoML archive (doi:10.1016/j.tca.2013.05.015).

Experiment: mn = molality of the nth substance listed, in mol/kg
Details: 101 kPa, Liquid; for speed of sound: Sing-around technique in a fixed-path interferometer; for mass density: Vibrating tube method

CCCCCCCC[N+](C)(CCCCCCCC)CCCCCCCC.O=S(=O)([N-]S(=O)(=O)C(F)(F)F)C(F)(F)F + CCO
Details | mass density, 298.15 K [kg/m3] | mass density, 303.15 K [kg/m3] | mass density, 308.15 K [kg/m3] | mass density, 313.15 K [kg/m3] | speed of sound, 298.15 K [m/s] | speed of sound, 303.15 K [m/s] | speed of sound, 308.15 K [m/s] | speed of sound, 313.15 K [m/s]
m1 = 0.022 | 787.5 | 783.3 | 778.6 | 774 | 1150 | 1129 | 1099 | 1087
m1 = 0.0465 | 790.5 | 786.3 | 781.5 | 777 | 1151 | 1130 | 1100 | 1088
m1 = 0.0692 | 793.7 | 789.3 | 784.3 | 779.5 | 1152 | 1131 | 1101 | 1089
m1 = 0.1378 | 805.5 | 801.2 | 797 | 792.6 | 1154 | 1134 | 1116 | 1104
m1 = 0.2691 | 825.5 | 821.5 | 816.6 | 812 | 1158 | 1140 | 1122 | 1110
m1 = 0.4006 | 844.7 | 840.6 | 836.4 | 832.3 | 1170 | 1149 | 1134 | 1116
m1 = 0.6112 | 868.3 | 864.6 | 860.4 | 856.3 | 1176 | 1158 | 1140 | 1125
m1 = 0.8299 | 883.8 | 879.9 | 875.8 | 866.2 | 1179 | 1161 | 1146 | 1131
m1 = 1.008 | 892.6 | 888.9 | 884.8 | 880.7 | 1182 | 1164 | 1149 | 1134
m1 = 1.28 | 910.2 | 906.5 | 902.4 | 898.3 | 1188 | 1170 | 1158 | 1146

CCCCCCCC[N+](C)(CCCCCCCC)CCCCCCCC.O=S(=O)([N-]S(=O)(=O)C(F)(F)F)C(F)(F)F + CCOC(C)=O
Details | mass density, 298.15 K [kg/m3] | mass density, 303.15 K [kg/m3] | mass density, 308.15 K [kg/m3] | mass density, 313.15 K [kg/m3] | speed of sound, 298.15 K [m/s] | speed of sound, 303.15 K [m/s] | speed of sound, 308.15 K [m/s] | speed of sound, 313.15 K [m/s]
m1 = 0.0193 | 897 | 891.1 | 885.3 | 878.9 | 1142 | 1119 | 1097 | 1074
m1 = 0.0434 | 900 | 894.1 | 888.3 | 882 | 1143 | 1120 | 1098 | 1076
m1 = 0.0692 | 903 | 897.1 | 891.3 | 885 | 1144 | 1122 | 1104 | 1077
m1 = 0.1377 | 910.7 | 904.8 | 899.1 | 892.9 | 1149 | 1125 | 1107 | 1080
m1 = 0.2691 | 923.8 | 918 | 912.4 | 906.5 | 1152 | 1128 | 1110 | 1083
m1 = 0.4006 | 935.1 | 929.4 | 924 | 918.3 | 1155 | 1131 | 1113 | 1086
m1 = 0.6119 | 950.4 | 944.9 | 939.7 | 934.5 | 1161 | 1140 | 1116 | 1092
m1 = 0.8299 | 963.4 | 958.3 | 953.3 | 948.4 | 1164 | 1146 | 1122 | 1098
m1 = 1.006 | 972.5 | 967.5 | 962.6 | 957.9 | 1170 | 1158 | 1128 | 1107
m1 = 1.28 | 984.5 | 979.7 | 974.8 | 970.2 | 1179 | 1161 | 1137 | 1113
m1 = 2.132 | 1011.1 | 1006.9 | 1001.9 | 997 | 1200 | 1170 | 1152 | 1131
m1 = 2.999 | 1029.3 | 1025.5 | 1019.5 | 1013.8 | 1206 | 1182 | 1161 | 1140
